Reference: patent EP0606747A1, “Tilmicosin and derivatives for treating gram-positive diseases of aquatic species” (ELI LILLY AND COMPANY, priority 1992, dated 1994)
≈ marks a conversion by molar mass, not a printed value. Where two headings read alike, the source gives them in different places.

What was measured:
[1] = tested on: Renibacterium salmoninarum; experiment: In vitro evaluation of tilmicosin against Renibacterium salmoninarum (MIC); format: cell-based; details: for MIC: Renibacterium salmoninarum, read-out: minimum inhibitory concentration (MIC)
Protocol: Test 1: In vitro evaluation of tilmicosin against Renibacterium salmoninarum.
A dozen strains of Renibactenum salmoninarum were obtained and cultured in standard procedures. Eight grew successfully and were employed in the evaluation of tilmicosin.
Tilmicosin was evaluated at various concentrations and the minimum inhibitory concentration (MIC) determined for each of the strains. For three of the strains, the MIC was 1 µg/ml; for the remaining five strains, the MIC was 2 µg/ml.

[2] = Test 2: palatability and growth study in Atlantic salmon, medicated diets, four weeks; format: in vivo, Atlantic salmon (Salmo salar); details: all fish at the end of the four-week study
Protocol: Test 2: Palatability and growth studies in Atlantic salmon.
A trial was conducted to determine the palatability and effect on growth of Atlantic salmon (Salmo salar), St. John River strain, of diets containing various concentrations of tilmicosin. Pre-smolt salmon, each weighing about 50 grams, from a stock certified to be free of bacterial kidney disease, were used. The fish were acclimatized for four weeks. During this period, the fish were in tanks maintained with fresh single-pass flow-through well water, 10±2°C., and a photoperiod of 12/12. Water flow rate was adequate to provide a dissolved oxygen concentration of ≧ 5 mg/liter post feeding and under conditions of normal activity provided a dissolved oxygen concentration of ≧ 8 mg/liter. All fish were fed a standard diet. […]
All fish were fed 3× on weekdays and 1× or 2× on weekend days. […] The trial lasted four weeks, and the following parameters were determined: feed intake feed intake as % of body weight weight gain weight gain as % of body weight feed conversion At the end of the four weeks, the fish were sacrificed and tissue from liver, muscle, and kidney analyzed for tilmicosin by an HPLC assay. […] Quantitative determination of tilmicosin was accomplished by reversed-phase HPLC with a phenylsilyl stationary phase and a U.V. absorption detector at 280 nm. […]

[3] = Test 3: palatability and growth study in Atlantic salmon, tilmicosin base versus phosphate salt; format: in vivo, Atlantic salmon (Salmo salar); details: 800 mg/kg of diet (free base equivalent), four weeks; cause of death could not be determined
Protocol: Test 3: Palatability and Growth Studies in Atlantic Salmon, Comparing Tilmicosin Base and Phosphate Salt
A trial was conducted to determine the palatability to Atlantic salmon (Salmo salar), St. John River strain, of diets containing either tilmicosin (free base) or tilmicosin phosphate. Pre-smolt salmon, each weighing about 50 grams, from a certified disease free stock, were used. The salmon, 30 per tank and 9 tanks, were acclimatized for about two weeks. During this period and throughout the trial, the tanks were maintained with fresh single-pass flow-through well water, 2 liters per minute, 12 ± 1°C., and the photoperiod was 12/12. During the acclimatization, all fish were fed a standard feed. Thereafter the salmon in three tanks continued to receive the standard diet, to serve as a control. The salmon in three other tanks received a modified diet containing 800 mg of tilmicosin (free base) per kilogram of diet; the salmon in the last three tanks received a modified diet containing tilmicosin phosphate in an amount equivalent to 800 mg of tilmicosin (free base) per kilogram of diet. […] The trial was continued for a four-week period, during which these parameters were evaluated: feed intake feed intake as % of body weight weight gain weight gain as % of body weight feed conversion All surviving fish were euthanized. […]

CC[C@H]1OC(=O)C[C@@H](O)[C@H](C)[C@@H](O[C@@H]2O[C@H](C)[C@@H](O)[C@H](N(C)C)[C@H]2O)[C@@H](CCN2C[C@H](C)C[C@H](C)C2)C[C@@H](C)C(=O)/C=C/C(C)=C/[C@@H]1CO[C@@H]1O[C@H](C)[C@@H](O)[C@@H](OC)[C@H]1OC [tilmicosin]
MIC ([1]; remaining five of the eight strains): 2 µg/mL (≈ 2.3 µM)
MIC ([1]; three of the eight strains): 1 µg/mL (≈ 1.15 µM)
growth ([1]; lower concentrations down to 0.25 µg/ml): dramatic reduction in growth
Post-mortem examination [2]: no gross abnormalities

tilmicosin phosphate
mortality [3]: One fish from the tank receiving tilmicosin phosphate died
